According to patent US4883863A, “Tripeptide derivatives and antiplasmin agents containing the same” (Nitto Boseki Co., Ltd., priority 1987, dated 1989):
Counter-ions that a name gives are not always drawn. Where a SMILES comes first, the peptide text is derived from it. [ ]: non-standard residue; d: D form. The star is where a group is joined. Tos = Cc1ccc(S(=O)(=O)*)cc1; Moc = COC(=O)*; For = O=C*

How the values were obtained:
human Factor Xa = target: T1, human Factor Xa (Homo sapiens, UniProt P00742); assay: Factor Xa-inhibiting activity, synthetic substrate PS-2000; format: biochemical; conditions: Table 4; PS-2000, pH 8.5, 37° C.
T1 construct: purchased Boehringer Manheim Co., Ltd
T1 sequence (P00742 235-488 limits assumed): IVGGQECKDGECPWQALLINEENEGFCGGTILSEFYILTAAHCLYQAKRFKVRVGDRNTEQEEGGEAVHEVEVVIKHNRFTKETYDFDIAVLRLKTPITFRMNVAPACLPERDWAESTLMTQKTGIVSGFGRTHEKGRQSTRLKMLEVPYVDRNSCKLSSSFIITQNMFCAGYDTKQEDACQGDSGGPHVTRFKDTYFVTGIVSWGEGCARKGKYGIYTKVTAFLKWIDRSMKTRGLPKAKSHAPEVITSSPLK
T1 sequence (P00742 41-179 partner limits assumed): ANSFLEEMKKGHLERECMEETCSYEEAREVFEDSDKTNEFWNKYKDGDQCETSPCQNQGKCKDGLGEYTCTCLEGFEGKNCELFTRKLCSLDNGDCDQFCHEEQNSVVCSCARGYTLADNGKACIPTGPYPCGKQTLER
Source text: Synthetic substrates used for testing the inhibitory activity of the inhibitors on decomposition of substrates by the enzymes were as follows. For plasmin, PS-994 (H--D--Lys(Tos)--Phe--Lys--CHA·2HCl, mfd. by NITTO BOSEKI Co., Ltd.) was used; for thrombin and trypsin, PS-915 (H--D--Phe--Pro--Arg--CHA·2HCl, mfd. by NITTO BOSEKI Co., Ltd.); for Factor Xa, PS-2000 (Z--D--Lys--(HCO)--Gly--Arg--CHA·HCl, mfd. by NITTO BOSEKI Co., Ltd.); and for kallikrein, S-2302 (H--D--Pro--Phe--Arg--pNA, mfd., by Kabi Co., Ltd.).
As plasmin, standard plasmin of Sankyo Color Test α2 -D1 Kit was used in an amount of 0.3CU/ml. As thrombin, that of Sankyo Color Test ATIII kit was used in an amount of 1.2 NIHU/ml. As trypsin, that of cord 3703 of Worthington was used in an amount of 2 μg/ml. As human Factor Xa, that of Boehringer Manheim Co., Ltd. was used in an amount of 0.25 U/ml. As human plasma kallikrein, that of Kabi Co., Ltd. was used in an amount of 0.12 U/ml. As terminating color reagents, those for Sankyo Color Test Kit were used. The reactions were carried out at 37° C. unless otherwise specified.
Each of aqueous solutions (1 ml) of the inhibitors which solutions were various in their respective concentrations was added to 0.3 ml of a buffer solution (a 150 mM aqueous sodium chloride solution containing 50 mM Tris, pH 8.5 ), and the resulting solution was heated for 5 minutes. Then, 0.1 ml of a Factor Xa solution (a 150 mM aqueous sodium chloride solution containing 50 mM Tris and 20 mM calcium chloride, pH 8.5) was added, followed by incubation for 5 minutes. Subsequently, a 5% polyvinyl pyrrobidone solution (0.1 ml) containing 10 mM PS-2000 was added, followed by incubation for 5 min. Thereafter, 2 ml of terminating color reagent was added. After standing for 10 minutes, absorbance at 700 nm was measured and IC50 was determined in the manner described above.

plasmin = plasmin (Homo sapiens, UniProt P00747); assay: Inhibitory activity on fibrin decomposition by plasmin (natural substrate); format: biochemical; parameters: Standard human serum (0.1 ml); from tissue; conditions: Table 4; concentration doubling time for complete dissolution, 25° C.
Chain of plasmin (P00747 581-810 limits assumed): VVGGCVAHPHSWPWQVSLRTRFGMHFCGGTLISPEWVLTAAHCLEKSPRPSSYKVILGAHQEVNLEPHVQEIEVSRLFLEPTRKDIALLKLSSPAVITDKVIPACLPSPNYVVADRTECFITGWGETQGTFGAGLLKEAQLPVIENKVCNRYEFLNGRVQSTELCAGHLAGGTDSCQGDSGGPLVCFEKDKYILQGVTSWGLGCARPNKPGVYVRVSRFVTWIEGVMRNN
Chain of plasmin (P00747 97-580 partner limits assumed): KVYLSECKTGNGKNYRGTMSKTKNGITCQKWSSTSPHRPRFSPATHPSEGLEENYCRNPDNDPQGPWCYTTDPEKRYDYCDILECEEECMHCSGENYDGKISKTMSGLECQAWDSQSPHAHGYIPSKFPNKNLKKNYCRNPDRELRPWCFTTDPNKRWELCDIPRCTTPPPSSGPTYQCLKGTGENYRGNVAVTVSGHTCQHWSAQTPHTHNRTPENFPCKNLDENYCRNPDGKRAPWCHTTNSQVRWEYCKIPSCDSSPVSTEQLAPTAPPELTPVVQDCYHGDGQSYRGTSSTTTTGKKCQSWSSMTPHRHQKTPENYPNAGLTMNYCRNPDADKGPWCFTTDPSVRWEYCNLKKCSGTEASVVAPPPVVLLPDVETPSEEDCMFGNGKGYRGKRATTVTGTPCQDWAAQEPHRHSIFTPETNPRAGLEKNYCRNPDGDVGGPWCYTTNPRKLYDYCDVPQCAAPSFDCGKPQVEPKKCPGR
Protocol: The determination was carried out by the method of Okamoto et al. (see Keio Journal of Medicine, vol. 11, p. 105 (1962).
Standard human serum (0.1 ml), 0.4 ml of each of 1/20 M potassium phosphate sodium physiological salt buffer solutions (pH 7.4) containing various concentrations of each inhibitor, and 0.1 ml of a solution of streptokinase in physiological saline (1000 U/ml) were stirred and then cooled at 0° C. for 10 minutes. Thereto was added 0.05 ml of a solution of thrombin in physiological saline (100 NIHU/ml, mfd. by Parke Davis Co. Ltd.) at 0° C. After standing for 1 minute, 0.3 ml of a 0.33% solution of bovine fibrinogen (F-4753, available from Sigma Chemical Co.) in physiological saline was added, and the resulting mixture was allowed to stand at 25° C. The solubility was measured every minute by the standard of judgement of Nakamura (see Allergy, vol. 5, p. 1 (1956)) and the time required for complete dissolution was determined. A concentration of the inhibitor at which said time is twice that required in the absence of the inhibitor was determined as IC50.

| Compound | IC50 (human Factor Xa) [µM] | IC50 (plasmin) [µM] |
| --- | --- | --- |
| COC(=O)N[C@H](CCCCNS(=O)(=O)c1ccc(C)cc1)C(=O)N[C@@H](Cc1ccccc1)C(=O)N[C@H](C=O)CCCCN [Compound 2, N-α-Methoxycarbonyl-N-ε-(p-tosyl)-D-lysyl-L-phenylalanyl-L-lysinal hydrochloride] (Moc-[dK](Tos)-Phe-Lys-aldehyde) | 22 | 0.23 |
| Cc1ccc(S(=O)(=O)NCCCC[C@@H](NC=O)C(=O)N[C@@H](Cc2ccccc2)C(=O)N[C@H](C=O)CCCCN)cc1 [Compound 4, N-α-Formyl-N-ε-(p-tosyl)-D-lysyl-L-phenylalanyl-L-lysinal hydrochloride] (For-[dK](Tos)-Phe-Lys-aldehyde) | 85 | 0.24 |
